PubChem BioAssay (NCI)
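Five concentrations, 48 hours, 96-well plates. GI50: concentration for 50% inhibition of growth. The concentration for full growth arrest is given as TGI.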

Key:
Experiment in all cases: growth of human tumour cells (NCI), 48 h
786-0 renal = system: 786-0 renal
A498 renal = system: A498 renal
A549 NSCLC = system: A549 NSCLC
ACHN renal = system: ACHN renal
BT-549 breast = system: BT-549 breast
CAKI-1 renal = system: CAKI-1 renal
COLO 205 colon = system: COLO 205 colon
DU-145 prostate = system: DU-145 prostate
EKVX NSCLC = system: EKVX NSCLC
HCC-2998 colon = system: HCC-2998 colon
HCT-116 colon = system: HCT-116 colon
HCT-15 colon = system: HCT-15 colon
HOP-62 NSCLC = system: HOP-62 NSCLC
HOP-92 NSCLC = system: HOP-92 NSCLC
HS 578T breast = system: HS 578T breast
HT29 colon = system: HT29 colon
IGROV1 ovarian = system: IGROV1 ovarian
KM12 colon = system: KM12 colon
LOX IMVI melanoma = system: LOX IMVI melanoma
M14 melanoma = system: M14 melanoma
MALME-3M melanoma = system: MALME-3M melanoma
MCF7 breast = system: MCF7 breast
MDA-MB-231 breast = system: MDA-MB-231 breast
MDA-MB-435 = system: MDA-MB-435
NCI-H226 lung = system: NCI-H226 lung
NCI-H23 lung = system: NCI-H23 lung
NCI-H460 lung = system: NCI-H460 lung
NCI-H522 lung = system: NCI-H522 lung
NCI/ADR-RES ovarian = system: NCI/ADR-RES ovarian
OVCAR-3 ovarian = system: OVCAR-3 ovarian
OVCAR-4 ovarian = system: OVCAR-4 ovarian
OVCAR-5 ovarian = system: OVCAR-5 ovarian
OVCAR-8 ovarian = system: OVCAR-8 ovarian
PC-3 prostate = system: PC-3 prostate
RPMI-8226 leukemia = system: RPMI-8226 leukemia
RXF 393 renal = system: RXF 393 renal
SF-268 CNS = system: SF-268 CNS
SF-295 CNS = system: SF-295 CNS
SF-539 CNS = system: SF-539 CNS
SK-MEL-2 melanoma = system: SK-MEL-2 melanoma
SK-MEL-28 melanoma = system: SK-MEL-28 melanoma
SK-MEL-5 melanoma = system: SK-MEL-5 melanoma
SK-OV-3 ovarian = system: SK-OV-3 ovarian
SN12C renal = system: SN12C renal
SNB-19 CNS = system: SNB-19 CNS
SNB-75 CNS = system: SNB-75 CNS
SW-620 colon = system: SW-620 colon
T-47D breast = system: T-47D breast
TK-10 renal = system: TK-10 renal
U251 CNS = system: U251 CNS
UACC-257 melanoma = system: UACC-257 melanoma
UACC-62 melanoma = system: UACC-62 melanoma
UO-31 renal = system: UO-31 renal
CCRF-CEM leukemia = system: CCRF-CEM leukemia
HL-60(TB) leukemia = system: HL-60(TB) leukemia
K-562 leukemia = system: K-562 leukemia
MOLT-4 leukemia = system: MOLT-4 leukemia
SR leukemia = system: SR leukemia

## [O-][n+]1ccccc1S
786-0 renal
  TGI: > 100 µM
A498 renal
  TGI: > 100 µM
A549 NSCLC
  TGI: 38.5 µM
ACHN renal
  TGI: > 100 µM
BT-549 breast
  GI50: 27.1 µM
  TGI: > 100 µM
CAKI-1 renal
  TGI: 8.09 µM
COLO 205 colon
  TGI: 1.7 µM
DU-145 prostate
  GI50: 3.48 µM
  TGI: 46.8 µM
EKVX NSCLC
  TGI: > 100 µM
HCC-2998 colon
  TGI: > 100 µM
HCT-116 colon
  TGI: 4.5 µM
HCT-15 colon
  TGI: > 100 µM
HOP-62 NSCLC
  TGI: 13.1 µM
HOP-92 NSCLC
  TGI: > 100 µM
HS 578T breast
  GI50: 2.91 µM
  TGI: 56.4 µM
HT29 colon
  TGI: 2.32 µM
IGROV1 ovarian
  TGI: 4.09 µM
KM12 colon
  TGI: 20.3 µM
LOX IMVI melanoma
  TGI: > 100 µM
M14 melanoma
  TGI: > 100 µM
MALME-3M melanoma
  TGI: 89.1 µM
MCF7 breast
  GI50: 1.93 µM
  TGI: > 100 µM
MDA-MB-231 breast
  GI50: 6.73 µM
  TGI: > 100 µM
MDA-MB-435
  GI50: 3.17 µM
  TGI: > 100 µM
NCI-H226 lung
  TGI: > 100 µM
NCI-H23 lung
  TGI: > 100 µM
NCI-H460 lung
  TGI: 5.21 µM
NCI-H522 lung
  TGI: 5.14 µM
NCI/ADR-RES ovarian
  GI50: 5.17 µM
  TGI: > 100 µM
OVCAR-3 ovarian
  TGI: 2.78 µM
OVCAR-4 ovarian
  TGI: 4.4 µM
OVCAR-5 ovarian
  TGI: > 100 µM
OVCAR-8 ovarian
  TGI: > 100 µM
PC-3 prostate
  GI50: 3.61 µM
  TGI: > 100 µM
RPMI-8226 leukemia
  TGI: 6.47 µM
RXF 393 renal
  TGI: 8.33 µM
SF-268 CNS
  TGI: > 100 µM
SF-295 CNS
  TGI: 9.51 µM
SF-539 CNS
  TGI: > 100 µM
SK-MEL-2 melanoma
  TGI: 9.13 µM
SK-MEL-28 melanoma
  TGI: > 100 µM
SK-MEL-5 melanoma
  TGI: 30.9 µM
SK-OV-3 ovarian
  TGI: > 100 µM
SN12C renal
  TGI: > 100 µM
SNB-19 CNS
  TGI: > 100 µM
SNB-75 CNS
  TGI: > 100 µM
SW-620 colon
  TGI: 23.1 µM
T-47D breast
  GI50: 6.27 µM
  TGI: > 100 µM
TK-10 renal
  TGI: 4.71 µM
U251 CNS
  TGI: > 100 µM
UACC-257 melanoma
  TGI: 64.4 µM
UACC-62 melanoma
  TGI: 29.6 µM
UO-31 renal
  TGI: > 100 µM

## O=C1NC(=O)C(=C/C=C/c2ccccc2)C(=O)N1
786-0 renal
  GI50: 3.11 µM
  TGI: 11 µM
A498 renal
  GI50: 20 µM
  TGI: 34.6 µM
A549 NSCLC
  GI50: 7.06 µM
  TGI: 28 µM
ACHN renal
  GI50: 2.32 µM
  TGI: 5.65 µM
BT-549 breast
  GI50: 2.32 µM
  TGI: 6.79 µM
CCRF-CEM leukemia
  GI50: 3.57 µM
  TGI: > 100 µM
COLO 205 colon
  GI50: 2.33 µM
  TGI: 4.97 µM
DU-145 prostate
  GI50: 2.13 µM
  TGI: 4.87 µM
HCC-2998 colon
  GI50: 2.2 µM
  TGI: 4.1 µM
HCT-116 colon
  GI50: 1.71 µM
  TGI: 3.28 µM
HCT-15 colon
  GI50: 2.2 µM
  TGI: 7.06 µM
HL-60(TB) leukemia
  GI50: 2.91 µM
  TGI: 8.08 µM
HOP-62 NSCLC
  GI50: 12 µM
  TGI: 25.5 µM
HS 578T breast
  GI50: 4.81 µM
  TGI: 50.4 µM
K-562 leukemia
  GI50: 4.94 µM
  TGI: 70 µM
KM12 colon
  GI50: 1.74 µM
  TGI: 3.26 µM
LOX IMVI melanoma
  GI50: 1.55 µM
  TGI: 3.3 µM
M14 melanoma
  GI50: 2.04 µM
  TGI: 4.73 µM
MCF7 breast
  GI50: 2.97 µM
  TGI: 20.1 µM
MDA-MB-231 breast
  GI50: 3.73 µM
  TGI: 16 µM
MOLT-4 leukemia
  GI50: 4.12 µM
  TGI: 25.1 µM
NCI-H226 lung
  GI50: 2.81 µM
  TGI: 7.25 µM
NCI-H23 lung
  GI50: 2.16 µM
  TGI: 5.29 µM
NCI-H460 lung
  GI50: 2.78 µM
  TGI: 7.31 µM
NCI-H522 lung
  GI50: 2.36 µM
  TGI: 7.15 µM
NCI/ADR-RES ovarian
  GI50: 3.78 µM
  TGI: 16.7 µM
OVCAR-3 ovarian
  GI50: 1.53 µM
  TGI: 3.97 µM
OVCAR-4 ovarian
  GI50: 5.37 µM
  TGI: 17.2 µM
OVCAR-5 ovarian
  GI50: 5.33 µM
  TGI: 23 µM
OVCAR-8 ovarian
  GI50: 3.01 µM
  TGI: 17.8 µM
PC-3 prostate
  GI50: 4.59 µM
  TGI: 23.4 µM
RPMI-8226 leukemia
  GI50: 3.59 µM
  TGI: 10.2 µM
RXF 393 renal
  GI50: 1.39 µM
  TGI: 2.71 µM
SF-268 CNS
  GI50: 3.2 µM
  TGI: 10.3 µM
SF-539 CNS
  GI50: 2.33 µM
  TGI: 6.3 µM
SK-MEL-2 melanoma
  GI50: 3.65 µM
  TGI: 16.2 µM
SK-MEL-28 melanoma
  GI50: 1.91 µM
  TGI: 3.59 µM
SK-MEL-5 melanoma
  GI50: 2.24 µM
  TGI: 4.94 µM
SK-OV-3 ovarian
  GI50: 16.5 µM
  TGI: 30.5 µM
SN12C renal
  GI50: 3.27 µM
  TGI: 19.5 µM
SNB-19 CNS
  GI50: 5.14 µM
  TGI: 24.7 µM
SNB-75 CNS
  GI50: 6 µM
  TGI: 19.4 µM
SR leukemia
  GI50: 0.716 µM
  TGI: > 100 µM
SW-620 colon
  GI50: 1.79 µM
  TGI: 4.22 µM
T-47D breast
  GI50: 11.6 µM
  TGI: 53 µM
TK-10 renal
  GI50: 5.62 µM
  TGI: 18.3 µM
U251 CNS
  GI50: 2.5 µM
  TGI: 10.3 µM
UACC-257 melanoma
  GI50: 2.24 µM
  TGI: 7.34 µM
UACC-62 melanoma
  GI50: 1.88 µM
  TGI: 4.5 µM
